Assay results taken from US20030035851A1, “Anti-cancer agents and method of use thereof” (priority 2001, published 2003).
In brackets after ≈: the same amount, converted by molar mass.

Experiments:
[1] = tested on: LNCaP and DU-145; assay: Cell growth inhibition of LNCaP and DU-145 by DES (FIG. 14); format: cell-based; conditions: previous study
[2] = tested on: LNCaP cell cycle; assay: Cell cycle distribution by DNA flow cytometry, LNCaP; format: cell-based, Human; parameters: cells arrested in the G1 phase: dose or concentration left out as unconfirmed
Source text: The cell cycle is the program for cell growth and cell proliferation (cell division). There are four phases of the cell cycle: G1, S, G2, and M. The G1 phase is characterized by gene expression and protein synthesis, and is regulated primarily by extracellular stimuli. During the S phase, the cell replicates its DNA. During the G2 phase, the cell undergoes growth and protein synthesis in preparation for cell division. The M phase is characterized by cytokinesis of the cell into two daughter cells.
The effect of oridonin and lupulone on LNCaP cells was determined by the following method. 2×10^6-4×10^6 cultured cells were exposed to varying concentrations (e.g., 1.5 microgram/milliliter (ug/ml)-3 ug/ml) of oridonin or lupulone for 24-48 hours in 12.5 cm^2 area flasks before being harvested. The cells were washed with phosphate buffered saline (PBS) and fixed in ice-cold 70% ethanol.
The distribution of cells in various stages of the cell cycle were determined by first staining the cells with the DNA specific fluorochrome, and then by measuring cellular DNA content with an ELITE ESP flow cytometer (Coulter Inc., Fl.) using UV laser illumination. The Multicycle program (Phoenix Flow Systems) was used to deconvolute the DNA frequency histograms to estimate the frequency of cells in different phases of the cell cycle, and those in apoptosis.

[3] = tested on: DU-145 cell cycle; assay: Cell cycle distribution by DNA flow cytometry, DU-145; format: cell-based; conditions: for cell cycle arrest phase / increase in the number of cells arrested in the S phase compared to the control / cells arrested in the G2M phase: DU-145; for increase in the number of cells arrested in the S phase compared to the control: FIG. 6
[4] = tested on: LNCaP cells; assay: MTT cell proliferation assay, LNCaP; format: cell-based, Human; conditions: for ED50 values from MTT Assay, LNCaP: concentration giving 50% inhibition of cancer cell growth, 72 hours, linear interpolation of FIGS. 1-3
Experimental: (§1) The cells were routinely seeded at 1×10^5 cells/ml in T-75 flasks, allowed to attach overnight, and then treated with the oridonin or the lupulone. At different times, the cells were harvested by trypsinization.
(§2) The inhibitory effect on a cell's ability to divide was determined by an MTT (3-(4,5-dimethylthiazol-2-yl)-2,5-diphenyl tetrazolium bromide) assay. The assay reagents were purchased from Boehringer Mannheim (Roche Diagnosis Corp, Indianapolis, Ind.). […] The MTT assay provides a method whereby cell proliferation can be determined by […]. The protocol for the cell viability assay was provided by Boehringer Mannheim and modified as described below.
(§3) The cells were then incubated at […] and allowed to attach to the plates. After 24 hours, 20 microliter aliquots having varying concentrations of oridonin or lupulone were added to the cell culture. Each aliquot was plated into 3 wells to obtain mean values. […] The plates were incubated at 37° C. in a CO2 incubator for 72 hours. After 72 hours, the culture medium was carefully removed without disturbing the cells and replaced by 100 microliters of fresh cell medium. 10 microliters of MTT was added to each well and the plates were incubated in the CO2 incubator at 37° C. for 4 hours. Afterwards, 100 microliters of sodium dodecylsulfate (SDS) solubilizing reagent (from Boehringer Mannheim) was added to each well. The plates were placed in the CO2 incubator at 37° C. for about 10-14 hours. Afterwards, the cell concentration of each plate was determined by an ELISA Reader (EL800, Bio-Tek Instruments, Inc.) at a wavelength of […]. The percent cell viability was calculated according to the equation below: [formula]
(§4) where V is the percent cell viability, Acontrol is the absorption of the control cells, and Atreated is the absorption of the treated cells.

[5] = tested on: DU-145 cells; assay: MTT cell proliferation assay, DU-145; format: cell-based; conditions: for ED50 values from MTT Assay, DU-145: concentration giving 50% inhibition of cancer cell growth, 72 hours, linear interpolation of FIGS. 1-3
Experimental: as §1, §2, §3, §4

[6] = tested on: Bcl-2; assay: Flow cytometric measurement of Bcl-2 protein in LNCaP; format: cell-based, Human; conditions: 8.24 uM oridonin, flow cytometry, CTRL 11.3
Experimental: To further verify the increase in Bax and the decrease in Bcl-2 proteins, and to determine the p53 protein levels induced by oridonin, flow cytometric measurement was performed to compare the results as obtained by Western blot. Following treatment with 3-9 μM of oridonin for 48 h, the LNCaP cells were trypsinized and washed with PBS. The cells were fixed in 1% formaldehyde in PBS on ice for 10 minutes and then permeabilized with 70% ethanol at −20° C. After fixation, the cells were rinsed with PBS, treated with a blocking solution containing 1% (w/v) bovine serum albumin (BSA) and 0.1% sodium azide in PBS (PBS-BSA) for 2 min at room temperature. […] The secondary antibody was added at 1:50 dilution for 30 minutes at room temperature in the dark, then counterstained for DNA by the addition of 1 ml of PI […] solution (final PI concentration 5 μg/ml) containing 100 μg/ml of RNAse A. Cellular fluorescence was measured with the ELITE ESP flow cytometer/cell sorter (Coulter Inc., Miami, Fla.) using the argon ion laser (emission at 488 nm). Fluorescence signals were collected using the standard configuration of the flow cytometer (green fluorescence for antibodies containing Bcl-2, Bax, and p53, and red fluorescence for DNA staining). 10,000 cells were analyzed per sample.

[7] = tested on: p53; assay: Flow cytometric measurement of p53 protein in LNCaP; format: cell-based, Human; conditions: for increase in p53 concentration: FIG. 12
Experimental: (§5) To further verify the increase in Bax and the decrease in Bcl-2 proteins, and to determine the p53 protein levels induced by oridonin, flow cytometric measurement was performed to compare the results as obtained by Western blot. Following treatment with 3-9 μM of oridonin for 48 h, the LNCaP cells were trypsinized and washed with PBS. The cells were fixed in 1% formaldehyde in PBS on ice for 10 minutes and then permeabilized with 70% ethanol at −20° C. After fixation, the cells were rinsed with PBS, treated with a blocking solution containing 1% (w/v) bovine serum albumin (BSA) and 0.1% sodium azide in PBS (PBS-BSA) for 2 min at room temperature. The cells were subsequently added to a 100 μl aliquot of BSA/PBS solution containing 1:50 diluted primary antibody for Bcl-2, Bax (stained LNCaP) and p53. The mixtures were incubated at room temperature in the dark for 1 hr. The cells were subsequently washed twice with PBS-BSA buffer. The secondary antibody was added at 1:50 dilution for 30 minutes at room temperature in the dark, then counterstained for DNA by the addition of 1 ml of PI […] solution (final PI concentration 5 μg/ml) containing 100 μg/ml of RNAse A. Cellular fluorescence was measured with the ELITE ESP flow cytometer/cell sorter (Coulter Inc., Miami, Fla.) using the argon ion laser (emission at 488 nm). Fluorescence signals were collected using the standard configuration of the flow cytometer (green fluorescence for antibodies containing Bcl-2, Bax, and p53, and red fluorescence for DNA staining). 10,000 cells were analyzed per sample.

[8] = tested on: MCF-7 cell cycle; assay: Cell cycle distribution by DNA flow cytometry, MCF-7; format: cell-based; conditions: for cells arrested in the G1 phase: FIG. 7
[9] = tested on: Bax; assay: Flow cytometric measurement of Bax protein in LNCaP; format: cell-based, Human; conditions: flow cytometry
Experimental: as §5

[10] = tested on: MCF-7 cells; assay: MTT cell proliferation assay, MCF-7; format: cell-based; conditions: for ED50 values from MTT Assay, MCF-7: concentration giving 50% inhibition of cancer cell growth, 72 hours, linear interpolation of FIGS. 1-3
Experimental: as §1, §2, §3, §4

[11] = tested on: LNCaP cells; assay: TdT DNA strand break apoptosis assay, LNCaP; format: cell-based, Human; conditions: oridonin 13.7uM, 48 hours, FIG. 13
Experimental: To determine apoptosis in cells, a quantitative assay for the detection of DNA breakage, using the terminal deoxyribonucleotide transferase (TdT) color reaction assay (TiterTACS, Trevigen, Gaithersburg, Md.), was employed. Cells were fixed in 1% ice-cold formaldehyde for 15 minutes and postfixed in 70% ethanol overnight at −20° C. DNA strand breaks were directly labeled with fluorescent (2′-deoxyuridine 5′-triphosphate) dUTP in the reaction catalyzed by exogenous terminal deoxynucleotidyltransferase using the APO-Direct kit (Phoenix Flow System, San Diego, Calif.) according to the protocol provided with the kit. The green (FITC) and red (PI) fluorescence intensities of cells subjected to labeling DNA strand breaks with the use of TdT were measured using a FACScan Flow Cytometer (Becton Dickinson Immunocytometry Systems, San Jose, Calif.). The data from 10^4 cells per sample were collected, stored and analyzed using CELL Quest software (Becton Dickinson and Co.).

[12] = tested on: Bax and Bcl-2 protein expression; assay: Western blot of Bax and Bcl-2 in LNCaP; format: cell-based, Human; conditions: 8.24 uM and 13.74 uM of oridonin, 48 hours, FIG. 11
Experimental: To determine the Bcl-2:Bax ratio in oridonin-incubated LNCaP cells, a Western blotting procedure was performed. LNCaP cells were prepared such that one sample contained was incubated in the absence of oridonin, another sample in 8.24 uM of oridonin, and another sample in 13.74 uM of oridonin. The samples were incubated for 48 hours. Equal amounts of protein (10 micrograms) from LNCaP cell lysates were applied to a 10% SDS/PAGE (sodium dodecylsulfate/polyacrylamide gel electrophoresis) gel, and were then transferred to a PVDF membrane. The blots were probed with one of two primary antibodies comprising 1:100 Anti-Bax YTH-2D2 (Lot#3148E0, R&D, MN USA), and 1:100 Bcl-2 Oncoprotein (Clone 124, No. M0887), followed by second antibody exposure of 1:1000 Anti-mouse IgG-HRP (se-2005, Santa Cruz Biotechnology, USA) for 1 hour at […] temp. The immuno-binding signals were detected by the chemiluminescence method (ECL Western blotting system). The experiments were run in triplicates.

[13] = about 5 ug/ml of oridonin, FIG. 1
[14] = about 100 ug/ml of lupulone, FIG. 2

Molecule: CC/C(=C(/CC)c1ccc(O)cc1)c1ccc(O)cc1 [DES, reference compound]
- times more sensitive in inhibiting LNCaP than in inhibiting DU-145 [1]: about 2.5 times
- cell cycle arrest phase ([2]; DES (30 μM per FIG. 15 legend)): G2M phase arrest
- cell cycle arrest phase ([3]; DES): G2M phase arrest

Molecule: oridonin
- proliferation reduced over that of the control [4, 13]: about 75%
- ED50 values from MTT Assay, LNCaP [4]: 2.11 mg/L
- proliferation decreased over that of the control [5, 13]: more than 80%
- ED50 values from MTT Assay, DU-145 [5]: 3.03 mg/L
- Bcl-2 [6]: 7.9
- increase in p53 concentration ([7]; 8.2 uM of oridonin): Approximately 40%
- increase in the ratio of p53/Bcl-2 ([7]; 8.24uM oridonin, flow cytometry): 100%
- p53/Bcl-2 ([7]; 8.24 uM oridonin, flow cytometry, CTRL 1): 2.0
- p53 ([7]; 8.24 uM oridonin, flow cytometry, CTRL 8.8): 12.3
- increase in p53 concentration ([7]; 13.74 uM of oridonin): ~100%
- cells arrested in the G1 phase ([8]; 25 ug/ml): about 35%
- cells arrested in the G1 phase ([8]; 50 ug/ml): about 90%
- increase in the ratio of Bax/Bcl-2 ([9]; 8.24uM of oridonin): ~75%
- Bax/Bcl-2 ([9]; 8.24 uM oridonin, CTRL 1): 1.8
- Bax ([9]; 8.24 uM oridonin, CTRL 11.8): 14.5
- more cells arrested in the G1 phase compared to cells not exposed ([2]; 3 ug/ml of oridonin, FIG. 5): over 25%
- cell cycle arrest phase ([2]; oridonin): G1 cell cycle arrest
- cells in the G1 phase of the cell cycle ([2]; oridonin 3 μg/ml, 24 hr, FIG. 4): over 65%
- cells arrested in the G1 phase ([2]; oridonin, FIG. 9b): about 68%
- ED50 values from MTT Assay, MCF-7 [10]: 1.71 mg/L
- absorbance reading of MTT ([10]; under 15 ug/ml of oridonin, FIG. 3): 0
- cell apoptosis [11]: About 6%
- ratio of Bax/Bcl-2 by Western blot [12]: increased significantly
- cells arrested in the G1 phase ([3]; DU-145 (so in the source), about 8.20 uM-22 uM of oridonin, FIG. 10): over 60%
- increase in the number of cells arrested in the S phase compared to the control ([3]; 1.5 ug/ml of oridonin): ~16%
- increase in the number of cells arrested in the S phase compared to the control ([3]; 3.0 ug/ml of oridonin): about 30%
- cells arrested in the G2M phase ([3]; FIG. 9d): about 37%
- cells arrested in the G2M phase ([3]; about 8.20 uM-22 uM of oridonin, FIG. 10): 30-55%
- cell cycle arrest phase ([3]; oridonin): G2M arrest

Molecule: CC(C)=CCC1=C(O)C(CC=C(C)C)(CC=C(C)C)C(=O)C(C(=O)CC(C)C)=C1O [Lupulone, lupulone]
- proliferation decreased compared to the control [4, 14]: more than 75%
- ED50 values from MTT Assay, LNCaP [4]: 36.53 mg/L (≈ 88.1 µM)
- proliferation decreased compared to the control [5, 14]: more than 55%
- ED50 values from MTT Assay, DU-145 [5]: 89.7 mg/L (≈ 216 µM)
- effect on cell cycle ([8]; 60 micromolar (25 microgram/milliliter)): G1 phase arrest
- effect on cell proliferation ([8]; 120 micromolar (50 microgram/milliliter)): complete block of cell proliferation
- increase of cells arrested in the G2M phase compared to cells not exposed ([2]; lupulone (50 μg per FIG. 5 legend)): about 100%
- proliferation decreased compared to the control ([10]; about 100 ug/ml of lupulone, FIG. 3): more than 85%
- ED50 values from MTT Assay, MCF-7 [10]: 56.62 mg/L (≈ 137 µM)
